# Results published in PubChem BioAssay AID1963421 (Molecular Pharmacology Branch, DTP, NCI, 2024).
# Values joined by “and” are separate entries in the source; they are usually repeats but may differ in a detail not shown here. Equal entries are not always repeated.
# Test system: 519858-162-T-J1-PDC complex spheroid growth, % test/control
# Assay: Anticancer human tumor 519858-162-T-J1-PDC patient-derived colon adenocarcinoma cell line growth inhibition [Asc]
# Conditions: for viability, T/C: stronger effect = lower value
# Method in brief: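 Spheroid model: tumor line + HUVEC + hMSC. Single agents and combinations; top conc. at/near clinical Cmax (10 microM if undetermined), half-log dilutions. DMSO stocks at 800-fold test concentration.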
# [1] = curve of first compound, second compound 0.0316 µM
# [2] = curve of first compound, second compound 0.1 µM
# [3] = curve of first compound, second compound 0.316 µM
# [4] = curve of first compound, second compound 1 µM
# [5] = second compound 0.0316 µM, first compound 0.00949 µM
# [6] = second compound 0.0316 µM, first compound 0.03 µM
# [7] = second compound 0.0316 µM, first compound 0.0949 µM
# [8] = second compound 0.0316 µM, first compound 0.3 µM
# [9] = second compound 0.0316 µM, first compound 0.949 µM
# [10] = second compound 0.0316 µM, first compound 3 µM
# [11] = second compound 0.1 µM, first compound 0.00949 µM
# [12] = second compound 0.1 µM, first compound 0.03 µM
# [13] = second compound 0.1 µM, first compound 0.0949 µM
# [14] = second compound 0.1 µM, first compound 0.3 µM
# [15] = second compound 0.1 µM, first compound 0.949 µM
# [16] = second compound 0.1 µM, first compound 3 µM
# [17] = second compound 0.316 µM, first compound 0.00949 µM
# [18] = second compound 0.316 µM, first compound 0.03 µM
# [19] = second compound 0.316 µM, first compound 0.0949 µM
# [20] = second compound 0.316 µM, first compound 0.3 µM
# [21] = second compound 0.316 µM, first compound 0.949 µM
# [22] = second compound 0.316 µM, first compound 3 µM
# [23] = second compound 1 µM, first compound 0.00949 µM
# [24] = second compound 1 µM, first compound 0.03 µM
# [25] = second compound 1 µM, first compound 0.0949 µM
# [26] = second compound 1 µM, first compound 0.3 µM
# [27] = second compound 1 µM, first compound 0.949 µM
# [28] = second compound 1 µM, first compound 3 µM
# 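Further: seven day drug exposure begun three days after spheroid seeding.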
# 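Wherever viability, T/C is given: 100% = DMSO vehicle wells and lower values mean less viable spheroid.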
compound,measurement,setting,value
CCN1C(C(=O)NC23CCC(C(=O)O)(CC2)CC3)C(c2cccc(Cl)c2F)C2(C(=O)Nc3cc(Cl)ccc32)C12CCCCC2 (stereo not drawn) + CNC(C)C(=O)NC1CN(S(=O)(=O)c2cccc(S(=O)(=O)N3CCC4CCC(C(=O)NC(c5ccccc5)c5ccccc5)N4C(=O)C(NC(=O)C(C)NC)C3)c2)CCC2CCC(C(=O)NC(c3ccccc3)c3ccccc3)N2C1=O,IC50,"curve of first compound, second compound 0.00316 µM",> 3 µM
same,IC50,"curve of first compound, second compound 0.01 µM",> 3 µM
same,IC50,[1],> 3 µM
same,IC50,[2],> 3 µM
same,IC50,[3],> 3 µM
same,IC50,[4],> 3 µM
same,"viability, T/C","second compound 0.00316 µM, first compound 0.00949 µM",92%
same,"viability, T/C","second compound 0.00316 µM, first compound 0.03 µM",118%
same,"viability, T/C","second compound 0.00316 µM, first compound 0.0949 µM",111%
same,"viability, T/C","second compound 0.00316 µM, first compound 0.3 µM",83.8%
same,"viability, T/C","second compound 0.00316 µM, first compound 0.949 µM",108%
same,"viability, T/C","second compound 0.00316 µM, first compound 3 µM",65.8%
same,"viability, T/C","second compound 0.01 µM, first compound 0.00949 µM",101%
same,"viability, T/C","second compound 0.01 µM, first compound 0.03 µM",106%
same,"viability, T/C","second compound 0.01 µM, first compound 0.0949 µM",112%
same,"viability, T/C","second compound 0.01 µM, first compound 0.3 µM",80.1%
same,"viability, T/C","second compound 0.01 µM, first compound 0.949 µM",89.2%
same,"viability, T/C","second compound 0.01 µM, first compound 3 µM",82.6%
same,"viability, T/C",[5],96.4%
same,"viability, T/C",[6],73.9%
same,"viability, T/C",[7],122%
same,"viability, T/C",[8],94%
same,"viability, T/C",[9],83.5%
same,"viability, T/C",[10],82.1%
same,"viability, T/C",[11],94.7%
same,"viability, T/C",[12],73.8%
same,"viability, T/C",[13],82.1%
same,"viability, T/C",[14],93.2%
same,"viability, T/C",[15],80.1%
same,"viability, T/C",[16],89.6%
same,"viability, T/C",[17],96%
same,"viability, T/C",[18],115%
same,"viability, T/C",[19],92.8%
same,"viability, T/C",[20],79.6%
same,"viability, T/C",[21],81.3%
same,"viability, T/C",[22],105%
same,"viability, T/C",[23],78.9%
same,"viability, T/C",[24],84.7%
same,"viability, T/C",[25],66.1%
same,"viability, T/C",[26],112%
same,"viability, T/C",[27],82.2%
same,"viability, T/C",[28],83.1%
C=C(F)C(=O)N1CCN(c2nc(OCC3CCCN3C)nc3c2CCN(c2cccc4cccc(Cl)c24)C3)CC1CC#N (stereo not drawn),"viability, T/C",compound 0.0316 µM,95.4% and 95.7% and 94%
same,"viability, T/C",compound 0.1 µM,109% and 79.9% and 106%
same,"viability, T/C",compound 0.316 µM,97% and 96.7% and 84.9%
same,"viability, T/C",compound 1 µM,89.8% and 92.8% and 78.1%
same,"viability, T/C",compound 3.16 µM,94.5% and 80.9% and 93.3%
same,"viability, T/C",compound 10 µM,97.4% and 72.3% and 43%
same,IC50,curve of compound,> 10 µM and 8.44 µM
Cc1nc(N2CCC3(CC2)COC(C)C3N)c(CO)nc1Sc1ccnc(N)c1Cl (stereo not drawn) + Cc1c(S(C)(=O)=O)c(-c2cc(F)cc(N3CCN(c4ccc(NS(=O)(=O)c5ccc(NC(CCN6CCC(C(=O)OCCCP(=O)(O)O)CC6)CSc6ccccc6)c(S(=O)(=O)C(F)(F)F)c5)cc4)CC3)c2)c(-c2ccc(Cl)cc2)n1C(C)C,IC50,[1],2.1 µM
same,IC50,[2],0.823 µM
same,IC50,[3],> 3 µM
same,IC50,[4],> 3 µM
same,IC50,"curve of first compound, second compound 3.16 µM",> 3 µM
same,IC50,"curve of first compound, second compound 10 µM",> 3 µM
same,"viability, T/C",[5],90.4%
same,"viability, T/C",[6],106%
same,"viability, T/C",[7],47.1%
same,"viability, T/C",[8],73.5%
same,"viability, T/C",[9],68%
same,"viability, T/C",[10],39.9%
same,"viability, T/C",[11],109%
same,"viability, T/C",[12],105%
same,"viability, T/C",[13],78.5%
same,"viability, T/C",[14],63.9%
same,"viability, T/C",[15],47.3%
same,"viability, T/C",[16],43.6%
same,"viability, T/C",[17],81.5%
same,"viability, T/C",[18],92.9%
same,"viability, T/C",[19],68%
same,"viability, T/C",[20],101%
same,"viability, T/C",[21],68.4%
same,"viability, T/C",[22],50.5%
same,"viability, T/C",[23],92.5%
same,"viability, T/C",[24],68.5%
same,"viability, T/C",[25],52.5%
same,"viability, T/C",[26],75.5%
same,"viability, T/C",[27],43.2%
same,"viability, T/C",[28],53.7%
same,"viability, T/C","second compound 3.16 µM, first compound 0.00949 µM",71.4%
same,"viability, T/C","second compound 3.16 µM, first compound 0.03 µM",95.6%
same,"viability, T/C","second compound 3.16 µM, first compound 0.0949 µM",67.6%
same,"viability, T/C","second compound 3.16 µM, first compound 0.3 µM",62.8%
same,"viability, T/C","second compound 3.16 µM, first compound 0.949 µM",74.8%
same,"viability, T/C","second compound 3.16 µM, first compound 3 µM",56.2%
same,"viability, T/C","second compound 10 µM, first compound 0.00949 µM",68.9%
same,"viability, T/C","second compound 10 µM, first compound 0.03 µM",86.4%
same,"viability, T/C","second compound 10 µM, first compound 0.0949 µM",61.1%
same,"viability, T/C","second compound 10 µM, first compound 0.3 µM",59.8%
same,"viability, T/C","second compound 10 µM, first compound 0.949 µM",64%
same,"viability, T/C","second compound 10 µM, first compound 3 µM",76.5%
C=C(F)C(=O)N1CCN(c2nc(OCC3CCCN3C)nc3c2CCN(c2cccc4cccc(Cl)c24)C3)CC1CC#N (stereo not drawn) + CCN1C(C(=O)NC23CCC(C(=O)O)(CC2)CC3)C(c2cccc(Cl)c2F)C2(C(=O)Nc3cc(Cl)ccc32)C12CCCCC2,IC50,"curve of first compound, second compound 0.00949 µM",7.46 µM
same,IC50,"curve of first compound, second compound 0.03 µM",> 10 µM
same,IC50,"curve of first compound, second compound 0.0949 µM",> 10 µM
same,IC50,"curve of first compound, second compound 0.3 µM",9.03 µM
same,IC50,"curve of first compound, second compound 0.949 µM",4.55 µM
same,IC50,"curve of first compound, second compound 3 µM",2.79 µM
same,"viability, T/C","second compound 0.00949 µM, first compound 0.0316 µM",114%
same,"viability, T/C","second compound 0.00949 µM, first compound 0.1 µM",80.6%
same,"viability, T/C","second compound 0.00949 µM, first compound 0.316 µM",84.5%
same,"viability, T/C","second compound 0.00949 µM, first compound 1 µM",96.3%
same,"viability, T/C","second compound 0.00949 µM, first compound 3.16 µM",71.7%
same,"viability, T/C","second compound 0.00949 µM, first compound 10 µM",41.4%
same,"viability, T/C","second compound 0.03 µM, first compound 0.0316 µM",102%
same,"viability, T/C","second compound 0.03 µM, first compound 0.1 µM",84%
same,"viability, T/C","second compound 0.03 µM, first compound 0.316 µM",78.4%
same,"viability, T/C","second compound 0.03 µM, first compound 1 µM",84.3%
same,"viability, T/C","second compound 0.03 µM, first compound 3.16 µM",71.9%
same,"viability, T/C","second compound 0.03 µM, first compound 10 µM",52.5%
same,"viability, T/C","second compound 0.0949 µM, first compound 0.0316 µM",126%
same,"viability, T/C","second compound 0.0949 µM, first compound 0.1 µM",110%
same,"viability, T/C","second compound 0.0949 µM, first compound 0.316 µM",76.2%
same,"viability, T/C","second compound 0.0949 µM, first compound 1 µM",102%
same,"viability, T/C","second compound 0.0949 µM, first compound 3.16 µM",84.7%
same,"viability, T/C","second compound 0.0949 µM, first compound 10 µM",41.6%
same,"viability, T/C","second compound 0.3 µM, first compound 0.0316 µM",81%
same,"viability, T/C","second compound 0.3 µM, first compound 0.1 µM",73.8%
same,"viability, T/C","second compound 0.3 µM, first compound 0.316 µM",97.7%
same,"viability, T/C","second compound 0.3 µM, first compound 1 µM",90.5%
same,"viability, T/C","second compound 0.3 µM, first compound 3.16 µM",79.7%
same,"viability, T/C","second compound 0.3 µM, first compound 10 µM",47.2%
same,"viability, T/C","second compound 0.949 µM, first compound 0.0316 µM",95.5%
same,"viability, T/C","second compound 0.949 µM, first compound 0.1 µM",76.6%
same,"viability, T/C","second compound 0.949 µM, first compound 0.316 µM",96.7%
same,"viability, T/C","second compound 0.949 µM, first compound 1 µM",86.3%
same,"viability, T/C","second compound 0.949 µM, first compound 3.16 µM",58.1%
same,"viability, T/C","second compound 0.949 µM, first compound 10 µM",32.4%
same,"viability, T/C","second compound 3 µM, first compound 0.0316 µM",74.7%
same,"viability, T/C","second compound 3 µM, first compound 0.1 µM",81%
same,"viability, T/C","second compound 3 µM, first compound 0.316 µM",82.7%
same,"viability, T/C","second compound 3 µM, first compound 1 µM",70%
same,"viability, T/C","second compound 3 µM, first compound 3.16 µM",47.8%
same,"viability, T/C","second compound 3 µM, first compound 10 µM",26.2%
